Results taken from ChEMBL document CHEMBL5291721, “A preclinical secondary pharmacology resource illuminates target-adverse drug reaction associations of marketed drugs” (Nat Commun, 2023).

Experiments:
Cannabinoid receptor 1 = Cannabinoid receptor 1 (Homo sapiens, UniProt P21554); type: functional, cell-based
[1] = target: T1, Gamma-aminobutyric acid receptor subunit alpha-1 (Rattus norvegicus, UniProt P62813)
[2] = target: 5-hydroxytryptamine receptor 2B (Homo sapiens, UniProt P41595); type: functional, cell-based
[3] = target: T2, Muscarinic acetylcholine receptor M1 (Homo sapiens, UniProt P11229); type: functional, cell-based
T2 sequence (P11229 whole entry): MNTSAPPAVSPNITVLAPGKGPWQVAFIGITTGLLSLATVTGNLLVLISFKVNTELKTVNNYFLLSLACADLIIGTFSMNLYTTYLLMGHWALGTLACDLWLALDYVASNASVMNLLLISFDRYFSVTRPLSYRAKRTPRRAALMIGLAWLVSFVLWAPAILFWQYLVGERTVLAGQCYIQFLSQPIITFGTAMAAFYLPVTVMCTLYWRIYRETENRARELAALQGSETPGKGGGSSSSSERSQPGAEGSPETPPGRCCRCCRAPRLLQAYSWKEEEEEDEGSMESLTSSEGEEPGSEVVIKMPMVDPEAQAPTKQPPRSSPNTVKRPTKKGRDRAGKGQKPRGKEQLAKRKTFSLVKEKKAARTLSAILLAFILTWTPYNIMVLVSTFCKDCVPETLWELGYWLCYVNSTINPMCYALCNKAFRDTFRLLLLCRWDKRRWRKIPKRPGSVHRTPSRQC

[4] = target: T1, Gamma-aminobutyric acid receptor subunit alpha-1; type: functional
[5] = target: T3, Alpha-2A adrenergic receptor (Homo sapiens, UniProt P08913); type: functional, cell-based
T3 sequence (P08913 whole entry): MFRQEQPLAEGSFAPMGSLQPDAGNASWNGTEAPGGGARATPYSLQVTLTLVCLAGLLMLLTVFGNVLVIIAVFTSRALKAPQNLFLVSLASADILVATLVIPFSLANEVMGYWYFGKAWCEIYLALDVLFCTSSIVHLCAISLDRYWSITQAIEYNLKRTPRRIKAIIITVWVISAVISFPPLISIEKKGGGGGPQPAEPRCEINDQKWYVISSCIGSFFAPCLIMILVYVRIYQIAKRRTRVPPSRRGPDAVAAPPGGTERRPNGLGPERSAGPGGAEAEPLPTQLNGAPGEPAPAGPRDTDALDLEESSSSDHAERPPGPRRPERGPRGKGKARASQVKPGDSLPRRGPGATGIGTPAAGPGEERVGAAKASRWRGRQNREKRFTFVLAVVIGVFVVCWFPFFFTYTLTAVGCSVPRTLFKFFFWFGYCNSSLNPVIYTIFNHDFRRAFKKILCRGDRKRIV

Adenosine receptor A3 = target: T4, Adenosine receptor A3 (Homo sapiens, UniProt P0DMS8)
T4 sequence (P0DMS8 whole entry): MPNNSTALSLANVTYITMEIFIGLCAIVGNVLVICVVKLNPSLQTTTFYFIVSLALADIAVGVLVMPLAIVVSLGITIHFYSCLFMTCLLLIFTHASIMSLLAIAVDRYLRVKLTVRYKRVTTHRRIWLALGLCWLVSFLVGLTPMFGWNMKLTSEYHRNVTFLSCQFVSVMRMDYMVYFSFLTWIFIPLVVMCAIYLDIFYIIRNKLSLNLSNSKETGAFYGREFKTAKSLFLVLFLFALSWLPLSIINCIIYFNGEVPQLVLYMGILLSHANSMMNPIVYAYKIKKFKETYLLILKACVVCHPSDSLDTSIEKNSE

[6] = target: Sodium-dependent serotonin transporter (Homo sapiens, UniProt P31645)
Thromboxane A2 receptor = target: T5, Thromboxane A2 receptor (Homo sapiens, UniProt P21731)
T5 sequence (P21731 whole entry): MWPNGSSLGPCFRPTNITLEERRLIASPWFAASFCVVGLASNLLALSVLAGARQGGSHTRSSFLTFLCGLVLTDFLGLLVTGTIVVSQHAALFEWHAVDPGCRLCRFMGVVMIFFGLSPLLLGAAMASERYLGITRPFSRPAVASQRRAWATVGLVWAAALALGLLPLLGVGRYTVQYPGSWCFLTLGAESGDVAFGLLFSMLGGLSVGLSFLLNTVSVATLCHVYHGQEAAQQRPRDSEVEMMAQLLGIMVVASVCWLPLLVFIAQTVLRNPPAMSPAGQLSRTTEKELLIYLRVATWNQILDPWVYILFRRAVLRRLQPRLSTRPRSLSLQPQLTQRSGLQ

[7] = target: Beta-1 adrenergic receptor (Homo sapiens, UniProt P08588); type: functional
[8] = target: T6, Alpha-2C adrenergic receptor (Homo sapiens, UniProt P18825); type: functional
T6 sequence (P18825 whole entry): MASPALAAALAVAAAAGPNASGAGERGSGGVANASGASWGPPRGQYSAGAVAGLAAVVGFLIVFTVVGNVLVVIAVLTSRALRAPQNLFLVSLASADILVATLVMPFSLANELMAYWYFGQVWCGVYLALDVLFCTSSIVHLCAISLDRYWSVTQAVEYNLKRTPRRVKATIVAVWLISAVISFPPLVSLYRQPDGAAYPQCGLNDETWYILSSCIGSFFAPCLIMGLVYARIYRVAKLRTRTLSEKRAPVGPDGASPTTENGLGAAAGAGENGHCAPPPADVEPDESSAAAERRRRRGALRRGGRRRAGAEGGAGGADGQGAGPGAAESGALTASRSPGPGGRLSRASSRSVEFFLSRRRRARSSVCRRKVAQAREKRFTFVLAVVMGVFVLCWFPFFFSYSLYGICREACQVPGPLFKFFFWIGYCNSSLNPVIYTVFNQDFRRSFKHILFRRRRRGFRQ
Also: assay procedure not described here.

T1 sequence (P62813 whole entry): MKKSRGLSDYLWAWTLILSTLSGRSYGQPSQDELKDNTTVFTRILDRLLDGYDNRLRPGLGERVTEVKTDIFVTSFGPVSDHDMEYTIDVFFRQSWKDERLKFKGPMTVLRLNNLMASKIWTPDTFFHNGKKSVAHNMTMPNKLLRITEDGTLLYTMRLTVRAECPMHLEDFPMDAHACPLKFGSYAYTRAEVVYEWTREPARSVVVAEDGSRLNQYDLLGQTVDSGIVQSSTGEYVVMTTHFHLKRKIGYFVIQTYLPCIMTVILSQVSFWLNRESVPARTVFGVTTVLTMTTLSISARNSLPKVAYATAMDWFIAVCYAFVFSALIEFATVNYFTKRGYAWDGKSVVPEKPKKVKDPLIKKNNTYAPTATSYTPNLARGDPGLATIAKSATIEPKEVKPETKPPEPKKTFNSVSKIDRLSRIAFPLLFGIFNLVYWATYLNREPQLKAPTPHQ
5-hydroxytryptamine receptor 2B, sequence (P41595 whole entry): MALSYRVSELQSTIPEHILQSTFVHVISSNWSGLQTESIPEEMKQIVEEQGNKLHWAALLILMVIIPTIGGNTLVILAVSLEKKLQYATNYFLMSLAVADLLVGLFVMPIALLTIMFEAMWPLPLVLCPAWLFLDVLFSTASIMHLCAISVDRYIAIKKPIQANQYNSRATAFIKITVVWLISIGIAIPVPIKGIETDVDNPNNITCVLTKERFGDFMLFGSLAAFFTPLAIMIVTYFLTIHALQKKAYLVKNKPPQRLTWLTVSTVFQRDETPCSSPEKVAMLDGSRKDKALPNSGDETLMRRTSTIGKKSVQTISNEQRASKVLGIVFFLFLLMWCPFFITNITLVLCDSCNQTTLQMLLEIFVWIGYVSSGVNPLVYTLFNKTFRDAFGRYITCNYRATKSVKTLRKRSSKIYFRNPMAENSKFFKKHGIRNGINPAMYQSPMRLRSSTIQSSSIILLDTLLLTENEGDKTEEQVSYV
Sodium-dependent serotonin transporter, sequence (P31645 whole entry): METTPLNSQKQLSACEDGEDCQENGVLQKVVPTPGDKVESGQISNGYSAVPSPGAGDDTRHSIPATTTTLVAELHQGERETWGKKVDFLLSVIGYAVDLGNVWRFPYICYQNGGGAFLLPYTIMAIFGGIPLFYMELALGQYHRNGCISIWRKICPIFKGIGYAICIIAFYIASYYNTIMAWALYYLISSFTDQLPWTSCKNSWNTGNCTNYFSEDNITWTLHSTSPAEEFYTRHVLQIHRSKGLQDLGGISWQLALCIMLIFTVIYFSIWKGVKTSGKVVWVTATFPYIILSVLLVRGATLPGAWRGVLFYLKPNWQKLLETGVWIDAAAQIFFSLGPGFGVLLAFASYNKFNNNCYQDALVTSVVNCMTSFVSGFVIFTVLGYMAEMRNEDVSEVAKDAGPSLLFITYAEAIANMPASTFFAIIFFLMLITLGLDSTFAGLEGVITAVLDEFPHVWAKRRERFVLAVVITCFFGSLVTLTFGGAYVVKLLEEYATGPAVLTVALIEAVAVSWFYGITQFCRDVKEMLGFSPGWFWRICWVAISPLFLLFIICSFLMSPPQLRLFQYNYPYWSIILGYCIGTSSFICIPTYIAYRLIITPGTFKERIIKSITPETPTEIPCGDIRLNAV
Cannabinoid receptor 1, sequence (P21554 whole entry): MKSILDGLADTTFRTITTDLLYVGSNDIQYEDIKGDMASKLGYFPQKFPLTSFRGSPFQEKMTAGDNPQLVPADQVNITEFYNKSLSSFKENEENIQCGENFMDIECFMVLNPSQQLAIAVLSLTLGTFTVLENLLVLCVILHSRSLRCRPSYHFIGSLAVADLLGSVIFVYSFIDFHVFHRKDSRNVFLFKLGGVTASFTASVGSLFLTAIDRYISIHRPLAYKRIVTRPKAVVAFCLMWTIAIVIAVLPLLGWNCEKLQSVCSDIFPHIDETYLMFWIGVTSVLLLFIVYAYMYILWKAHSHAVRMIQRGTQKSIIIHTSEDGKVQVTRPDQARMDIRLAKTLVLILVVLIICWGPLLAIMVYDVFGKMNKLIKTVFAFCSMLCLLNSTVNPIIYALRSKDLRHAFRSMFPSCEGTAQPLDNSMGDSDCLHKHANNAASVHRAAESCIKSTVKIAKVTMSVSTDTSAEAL
Beta-1 adrenergic receptor, sequence (P08588 whole entry): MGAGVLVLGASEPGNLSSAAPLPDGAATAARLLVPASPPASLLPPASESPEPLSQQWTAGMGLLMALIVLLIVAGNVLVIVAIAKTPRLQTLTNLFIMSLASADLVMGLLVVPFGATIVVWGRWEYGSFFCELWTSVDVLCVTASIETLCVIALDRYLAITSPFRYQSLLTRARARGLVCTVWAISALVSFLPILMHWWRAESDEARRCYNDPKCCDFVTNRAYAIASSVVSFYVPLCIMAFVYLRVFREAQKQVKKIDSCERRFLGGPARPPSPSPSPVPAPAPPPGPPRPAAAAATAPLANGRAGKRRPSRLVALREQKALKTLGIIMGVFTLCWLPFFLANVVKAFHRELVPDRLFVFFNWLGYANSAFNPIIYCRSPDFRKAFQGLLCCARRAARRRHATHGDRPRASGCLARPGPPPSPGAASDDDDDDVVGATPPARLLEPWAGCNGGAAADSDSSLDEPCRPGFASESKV

`CC(=O)O[C@]1(C(C)=O)CC[C@H]2[C@@H]3C=C(C)C4=CC(=O)CC[C@@H]4[C@H]3CC[C@@]21C` [NOMEGESTROL ACETATE] was tested, and the AC50 (Cannabinoid receptor 1) was greater than 30 µM, the AC50 [1] was greater than 30 µM and the AC50 [2] was greater than 30 µM. For the same compound, the AC50 [3] was greater than 10 µM, the AC50 [4] was 2.5 µM and the AC50 [5] was greater than 30 µM. The AC50 (Adenosine receptor A3) was greater than 30 µM, the AC50 [6] was greater than 30 µM and the AC50 (Thromboxane A2 receptor) was greater than 30 µM. The AC50 [7] was greater than 30 µM and the AC50 [8] was greater than 30 µM.
